Data reported in patent US4788304A, “Phospholipase A2 inhibitors” (American Home Products Corporation, priority 1987, dated 1988).

How the values were obtained:
human platelet PLA2 = biological target: T1, human platelet PLA2 (Homo sapiens, UniProt P14555); experiment: Inhibition of cell free human platelet PLA2 (hydrolysis of [3H]-AA labelled E. coli phospholipids); type: biochemical; settings: 30 min
T1 construct: The PLA2 enriched supernatant fluid is removed and the amount of protein is determined by the Lowry method; from tissue; host or cells: expired human platelets from the blood bank (acid extract, not purified)
T1 sequence (P14555 21-144): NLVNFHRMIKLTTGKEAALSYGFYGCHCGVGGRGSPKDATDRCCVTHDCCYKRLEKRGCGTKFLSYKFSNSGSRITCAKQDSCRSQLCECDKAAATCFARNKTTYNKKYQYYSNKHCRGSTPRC
Method: The ability of the compounds in the scope of the invention to inhibit the activity of cell free human platelet PLA2 enzyme is measured in the following in vitro assay.
E. coli, cultured to exponential growth, are sedimented for 15 minutes at 10,000 g and resuspended in sterile isotonic saline (1-3 ml). 10-25 μCi uniformly labeled [^3 H]-arachidonic acid (AA) is added to a sterile flask, evaporated by N2 and resolubilized with 0.3 ml 20% fatty acid-free bovine serum albumen (BSA). 75-100 ml of nutrient broth and 1 ml E. coli are then added to each flask and incubated for 2-3 hours at 37° C. [^3 H]-AA labelled E. coli are then sedimented, suspended in saline and added to fresh nutrient broth and incubated for 1.5 hours at 37° C. to complete [^3 H]-AA incorporation into the phospholipids. After overnight refrigeration of cultures, E. coli are again sedimented, suspended in saline and autoclaved for 15 minutes at 120° C. E. coli cultures are washed twice with saline (first wash contains 1 % BSA) and resuspended in saline. Non-labelled E. coli cultures are also prepared in the same manner. Cell number is determined by measuring the optical density at […] (3×10 cell/ml=1 O.D.). The amount of radioactivity associated with cells is determined by counting a defined volume of cell suspension. The specific activity is subsequently adjusted by adding non-labelled E. coli to yield 2-4×10 cpm per 1×10^10 E. coli.
Expired human platelets from the blood bank are centrifuged for 15 minutes at 200 g to obtain a platelet rich fraction and to remove the red blood cells. Platelets are sedimented for 15 minutes at 2500 g and the plasma is removed before adding cold 0.18N H2 SO4 (4 ml/unit). Platelets are homogenized, incubated for 1 hour at 4° C., homogenized again and centrifuged for 15 minutes at 10,000 g. The PLA2 enriched supernatant fluid is removed and the amount of protein is determined by the Lowry method. The preparation is divided into various portions and stored at -20° C.
The assay measures the hydrolysis of E. coli membrane phospholipids and the release of free [^3 H]-AA from the C-2 position of phospholipids by human platelet PLA2. To ice cold 15×100 mm test tubes, the following additions are made; 2.5×10^8 E. coli (equivalent to 5 nmol phospholipid), 5 mM Ca++, 100 mM Tris buffer (pH=7.4), 100 μg platelet extract (or an amount to produce 20-30% hydrolysis), drug or vehicle. Incubation are carried out at 37° C. in a shaking water bath for 30 minutes. The reaction is terminated by the addition of 2 volumes of tetrahydrofuran (THF) and the mixture is vortexed. Hydrolyzed [^3 H]-AA is separated from unhydrolyzed phospholipid by solid phase extraction using Bond elute NH2 columns (Analytichem Intermat.). Columns are conditioned with 0.5 ml THF followed by 0.5 ml THF:H2 O (2.0:0.1 ml v/v). Samples are loaded onto columns and hydrolyzed [^3 H]-AA is eluted with 1 ml THF:glacial acetic acid (98.0:2.0 ml v/v). The elutant is transferred to vials, 10 ml Optifluor is added and the radioactivity is determined by liquid scintillation counting.
Treatments are corrected for non-enzymatic hydrolysis by subtracting the dpms in treatments containing no enzyme. Mean [^3 H]-AA dpm is determined and a percent inhibition relative to vehicle treated samples is calculated.
The percent hydrolysis is calculated by the following equation: [formula]

[1] = system: synthesis of LTB4 by rat glycogen-elicited polymorphonuclear leukocytes (PMN); experiment: Inhibition of LTB4 synthesis by rat glycogen-elicited polymorphonuclear leukocytes (PMN); type: cell-based, rat (female Wistar); settings: Leukocyte, A23187-stimulated rat PMN
[2] = system: oxazolone-induced contact hypersensitivity in the mouse ear; experiment: Oxazolone-induced contact hypersensitivity in the mouse ear; type: in vivo, mouse (Swiss Webster); settings: dosed at 1 mg/ear
Method: The assay of this Example measures the ability of the compounds in the scope of the invention to inhibit oxazolone-induced contact hypersensitivity in the mouse ear.
Female, Swiss Webster mice (8 weeks old) are placed into groups of 6 and the abdominal area of each is shaved. The mice are sensitized to oxazolone (4-ethoxymethylene-2-phenyl-oxazol-5-one) by applying 100 μl of a 2% solution in 95% alcohol directly onto the shaved abdomen using an automatic pipette and rubbing the residual oxazolone into the skin with a round wooden stick. Six days after sensitization each mouse is challenged by applying 20 μl of a 2% oxazolone solution in 95% alcohol to the right ear (10 μl on each side) and 20 μl of alcohol alone to the left ear. Compounds for topical applications are prepared in acetone and administered to the right ear 30 min after challenge or 30 min prior to and 5 h after challenge; acetone (vehicle) is applied to the left ear. Compounds for oral administration are suspended in 0.5 ml of 0.5% methyl cellulose and given ten min prior to challenge. Ear thickness of both ears is measured in mm×10^-2 at 24 and 48 h after challenge using an Oditest caliper. Edema is calculated by subtracting the left ear thickness from the right ear thickness. Drug effects are determined by calculating the percentage change from control for each time period.

inhibition at 50 µM (human platelet PLA2; at 50 μM, pH 7.4, 37° C.): 83.2%
IC50 (human platelet PLA2; cell free human platelet PLA2, pH 7.4, 37° C., read-out: IC50 (PLA2)): 10.7 µM
SMILES: COC(=O)C1(C(=O)CCCCOc2ccc(Cl)cc2)CO1 (stereo not shown) [Example 6A, 2-[5-(4-Chlorophenoxy)-1-oxopentyl]-2-oxiranecarboxylic acid methyl ester]
inhibition at 10 µM [1]: 11%
% Inhibition (oxazolone contact hypersensitivity) [2]: 34.3%
